Measured values from patent US11083725B2 (priority 2014, dated 2021).

System: NHBE cells
Assay: Biolog metabolic array: substrate use by NHBE cells with or without CA09 infection
Format: cell-based, human
Conditions: for Substrate use, 590 nm absorbance normalized to zero hour, 0 hr: Biolog PMM2, 0 hr; for Substrate use, 590 nm absorbance normalized to zero hour, 1 hr: Biolog PMM2, 1 hr; for Substrate use, 590 nm absorbance normalized to zero hour, 5 hr: Biolog PMM2, 5 hr; for Substrate use, 590 nm absorbance normalized to zero hour, 7 hr: Biolog PMM2, 7 hr
[1] = Control (uninfected) NHBE cells
[2] = Virus (CA09-infected NHBE cells, MOI 1)
[3] = Virus: CA09-infected NHBE cells, MOI 1, Biolog PMM2
[4] = Virus (CA09, MOI 1) infected NHBE cells
[5] = Virus (CA09-infected, MOI 1) NHBE cells

Compound | 590 nm absorbance normalized to zero hour (substrate use), 0 hr [1] | 590 nm absorbance normalized to zero hour (substrate use), 1 hr [1] | 590 nm absorbance normalized to zero hour (substrate use), 2 hr [1] | 590 nm absorbance normalized to zero hour (substrate use), 3 hr [1] | 590 nm absorbance normalized to zero hour (substrate use), 4 hr [1] | 590 nm absorbance normalized to zero hour (substrate use), 6 hr [1] | 590 nm absorbance normalized to zero hour (substrate use), 8 hr [1] | 590 nm absorbance normalized to zero hour (substrate use), 9 hr [1] | 590 nm absorbance normalized to zero hour (substrate use), 10 hr [1] | 590 nm absorbance normalized to zero hour (substrate use), 11 hr [1] | Substrate use, 590 nm absorbance normalized to zero hour, 0 hr [1] | Substrate use, 590 nm absorbance normalized to zero hour, 1 hr [1] | Substrate use, 590 nm absorbance normalized to zero hour, 5 hr [1] | Substrate use, 590 nm absorbance normalized to zero hour, 7 hr [1] | 590 nm absorbance normalized to zero hour (substrate use), 0 hr [2] | 590 nm absorbance normalized to zero hour (substrate use), 1 hr [2] | 590 nm absorbance normalized to zero hour (substrate use), 2 hr [2] | 590 nm absorbance normalized to zero hour (substrate use), 3 hr [2] | 590 nm absorbance normalized to zero hour (substrate use), 5 hr [2] | 590 nm absorbance normalized to zero hour (substrate use), 6 hr [2] | further results
O[C@H]1[C@H](O)[C@@H](O)[C@H](O)[C@@H](O)[C@H]1O [m-Inositol] | 1.00 | 1.63 | 2.13 | 3.87 | 3.78 | 3.01 | 3.42 | 3.81 | 3.89 | 3.64 | 1.00 | 1.63 | 3.07 | 3.55 | 1.00 | 0.51 | 0.66 | 0.77 | 0.94 | 0.99 | Substrate use, 590 nm absorbance normalized to zero hour, 11 hr (Control (uninfected) NHBE cells, Biolog PMM2, 11 hr): 4.22; 590 nm absorbance normalized to zero hour (substrate use), 4 hr [2]: 0.81; 590 nm absorbance normalized to zero hour (substrate use), 7 hr [2]: 1.04; 590 nm absorbance normalized to zero hour (substrate use), 8 hr [2]: 1.10; 590 nm absorbance normalized to zero hour (substrate use), 9 hr [2]: 1.20; 590 nm absorbance normalized to zero hour (substrate use), 10 hr [2]: 1.24; 590 nm absorbance normalized to zero hour (substrate use), 11 hr [2]: 1.34; 590 nm absorbance normalized to zero hour (substrate use), 0 hr [3]: 1.00; 590 nm absorbance normalized to zero hour (substrate use), 1 hr [3]: 0.51; 590 nm absorbance normalized to zero hour (substrate use), 2 hr [3]: 0.66; 590 nm absorbance normalized to zero hour (substrate use), 3 hr [3]: 0.77; 590 nm absorbance normalized to zero hour (substrate use), 4 hr [3]: 0.81; 590 nm absorbance normalized to zero hour (substrate use), 5 hr [3]: 0.94; 590 nm absorbance normalized to zero hour (substrate use), 6 hr [3]: 0.99; 590 nm absorbance normalized to zero hour (substrate use), 7 hr [3]: 1.04; 590 nm absorbance normalized to zero hour (substrate use), 8 hr [3]: 1.10; 590 nm absorbance normalized to zero hour (substrate use), 9 hr [3]: 1.20; 590 nm absorbance normalized to zero hour (substrate use), 10 hr [3]: 1.24; 590 nm absorbance normalized to zero hour (substrate use), 11 hr [3]: 1.34
O=C(O)C(O)C(O)C(=O)O (stereo not drawn) [m-Tartaric Acid] | 1.00 | 1.39 | 1.72 | 2.14 | 2.16 | 3.24 | 2.82 | 2.95 | 2.65 | 2.75 | 1.00 | 1.39 | 2.42 | 2.70 | 1.00 | 1.50 | 1.66 | 1.90 | 2.05 | 2.17 | 590 nm absorbance normalized to zero hour (substrate use), 4 hr [2]: 1.96; 590 nm absorbance normalized to zero hour (substrate use), 7 hr [2]: 2.23; 590 nm absorbance normalized to zero hour (substrate use), 8 hr [2]: 2.28; 590 nm absorbance normalized to zero hour (substrate use), 9 hr [2]: 2.43; 590 nm absorbance normalized to zero hour (substrate use), 10 hr [2]: 2.40; 590 nm absorbance normalized to zero hour (substrate use), 11 hr [2]: 2.41; 590 nm absorbance normalized to zero hour (substrate use), 0 hr [3]: 1.00; 590 nm absorbance normalized to zero hour (substrate use), 1 hr [3]: 1.50; 590 nm absorbance normalized to zero hour (substrate use), 2 hr [3]: 1.66; 590 nm absorbance normalized to zero hour (substrate use), 3 hr [3]: 1.90; 590 nm absorbance normalized to zero hour (substrate use), 4 hr [3]: 1.96; 590 nm absorbance normalized to zero hour (substrate use), 5 hr [3]: 2.05; 590 nm absorbance normalized to zero hour (substrate use), 6 hr [3]: 2.17; 590 nm absorbance normalized to zero hour (substrate use), 7 hr [3]: 2.23; 590 nm absorbance normalized to zero hour (substrate use), 8 hr [3]: 2.28; 590 nm absorbance normalized to zero hour (substrate use), 9 hr [3]: 2.43; 590 nm absorbance normalized to zero hour (substrate use), 10 hr [3]: 2.40; 590 nm absorbance normalized to zero hour (substrate use), 11 hr [3]: 2.41
CC(=O)N[C@H]1[C@H]([C@H](O)[C@H](O)CO)OC(O)(C(=O)O)C[C@@H]1O (stereo partly drawn) [n-acetyl-neuraminic acid] | 1.00 | 0.19 | 0.21 | 0.19 | 0.20 | 0.36 | 0.27 | 0.29 | 0.32 | 0.25 | 1.00 | 0.19 | 0.23 | 0.26 |  |  |  |  |  |  | Substrate use, 590 nm absorbance normalized to zero hour, 0 hr [4]: 1.00; Substrate use, 590 nm absorbance normalized to zero hour, 1 hr [4]: 4.77; Substrate use, 590 nm absorbance normalized to zero hour, 5 hr [4]: 1.43; Substrate use, 590 nm absorbance normalized to zero hour, 7 hr [4]: 1.58; 590 nm absorbance normalized to zero hour (substrate use), 0 hr [5]: 1.00; 590 nm absorbance normalized to zero hour (substrate use), 1 hr [5]: 4.77; 590 nm absorbance normalized to zero hour (substrate use), 2 hr [5]: 3.35; 590 nm absorbance normalized to zero hour (substrate use), 3 hr [5]: 3.95; 590 nm absorbance normalized to zero hour (substrate use), 4 hr [5]: 3.57; 590 nm absorbance normalized to zero hour (substrate use), 6 hr [5]: 2.71; 590 nm absorbance normalized to zero hour (substrate use), 8 hr [5]: 1.60; 590 nm absorbance normalized to zero hour (substrate use), 9 hr [5]: 1.61; 590 nm absorbance normalized to zero hour (substrate use), 10 hr [5]: 1.82; 590 nm absorbance normalized to zero hour (substrate use), 11 hr [5]: 2.21
Chondroitin Sulfate C | 1.00 | 1.60 | 1.94 | 2.10 | 2.19 | 3.28 | 2.56 | 2.92 | 3.00 | 2.49 | 1.00 | 1.60 | 2.50 | 2.63 | 1.00 | 1.22 | 1.41 | 1.45 | 1.62 | 1.61 | 590 nm absorbance normalized to zero hour (substrate use), 7 hr [2]: 1.63; 590 nm absorbance normalized to zero hour (substrate use), 8 hr [2]: 1.65; 590 nm absorbance normalized to zero hour (substrate use), 9 hr [2]: 1.72; 590 nm absorbance normalized to zero hour (substrate use), 10 hr [2]: 1.69; 590 nm absorbance normalized to zero hour (substrate use), 11 hr [2]: 1.75; 590 nm absorbance normalized to zero hour (substrate use), 0 hr [3]: 1.00; 590 nm absorbance normalized to zero hour (substrate use), 1 hr [3]: 1.22; 590 nm absorbance normalized to zero hour (substrate use), 2 hr [3]: 1.41; 590 nm absorbance normalized to zero hour (substrate use), 3 hr [3]: 1.45; 590 nm absorbance normalized to zero hour (substrate use), 5 hr [3]: 1.62; 590 nm absorbance normalized to zero hour (substrate use), 6 hr [3]: 1.61; 590 nm absorbance normalized to zero hour (substrate use), 7 hr [3]: 1.63; 590 nm absorbance normalized to zero hour (substrate use), 8 hr [3]: 1.65; 590 nm absorbance normalized to zero hour (substrate use), 9 hr [3]: 1.72; 590 nm absorbance normalized to zero hour (substrate use), 10 hr [3]: 1.69; 590 nm absorbance normalized to zero hour (substrate use), 11 hr [3]: 1.75
